Results from article doi:10.1101/2025.09.29.679234, “Engineered antimicrobial-derived peptides to manipulate mixed microbial systems” (bioRxiv, 2025).
Read-outs that look alike come from different tables or passages of the source. Marks after values point to notes of the source that are not given here. No end group written: not given here. *: point of attachment. FITC = O=C1OC2(c3ccc(O)cc3Oc3cc(O)ccc32)c2ccc(NC(=S)*)cc21

Columns and labels:
L. seeligeri [1] = experiment: Cell-binding assay by flow cytometry; design: species or system Listeria seeligeri; settings: for binding at the tested pHs (in words): pH 4.0, 6.0 and 7.4, Figure S10
Protocol: (§1) The binding affinity and avidity of pediocin to various Gram-positive and Gram-negative bacteria were studied using flow cytometry. Late log-phase cells were washed in the sodium phosphate buffer (5 mM, pH 6.0) and resuspended at an OD600 of 10^–3 in sodium-acetate buffer (25 mM, pH 4.0), sodium phosphate buffer (5 mM, pH 6.0) or sodium phosphate buffer (5mM, pH 7.4) containing 1 % BSA (bovine serum albumin) and 100 mM NaCl. Cells were incubated with varying concentrations of the conjugated peptide at 4 °C for 30 min. The unbound peptide was removed by centrifugation, and the pellet was resuspended in their respective binding containing 1 % BSA. Flow cytometry was performed on an Attune NxT flow cytometer (Life Technologies/ThermoFisher Scientific, Carlsbad, CA). Data (≥10^4 events were recorded) was recorded using a […] (488 nm) voltage of 360 V, gating was performed on SSC-A versus SSC-H plot to reduce false events.

E. faecium = experiment: Cell-binding assay by flow cytometry; design: species or system Enterococcus faecium; settings: pH 6.0
Protocol: as §1

[2] = test system: L. seeligeri in a 5 species synthetic community; experiment: Depletion by FACS of FITC-labelled cells in the mixed community (16S V3-V4 amplicon sequencing of the fluorescence-negative population); assay type: cell-based, Listeria seeligeri; settings: 40 μM of Ped-FITC printed in method, 4 °C 30 min, pH 6.0, 1 % BSA, 100 mM NaCl
From the text: We posited that pediocin PA-1 characterized here could be a potential tool to modulate the abundance of specific species in an intact microbial community. To this end, we pursued two approaches: 1) using synthetic pediocin PA-1 to deplete specific species by killing and 2) using FITC-conjugated pediocin PA-1 to deplete specific species by cell sorting. To deplete L. seeligeri by killing, we created a synthetic community of L. casei, L. plantarum L. cremoris, E. faecium, and L. seeligeri and grew it for 2 h. We then split the culture into 3 parts to which we added 1 μM, 10 μM, or 0 (control) unmodified pediocin PA-1 (Lifetein), respectively. We observed that after 4 h, the proportion of L. seeligeri in the control (untreated) increased from 18 % to 60 %. […] Next, we assessed the ability of FITC-conjugated pediocin (Ped-FITC) and its 15-mer version to deplete the target species through cell sorting. Again, we created a synthetic community containing L. seeligeri in abundance and assessed the proportion before and after FACS of FITC labeled cells. We attempted to sequence the fluorescence-positive population but were unsuccessful due to poor DNA yield. However, the genomic DNA isolated from the fluorescence-negative population indicated depletion of more than 50 % in the proportion of L. seeligeri from the synthetic community (Figure 4B). […]

L. seeligeri [3] = assay type: cell-based, Listeria seeligeri; settings: for antimicrobial activity (in words): kill curve / growth inhibition, Figures S7 and S9
Protocol: (§2) To determine the potency of the purified pediocin PA-1, we generated kill-curves against a range of target bacteria (Figure 1B). The concentration range tested was 3 pM to 3 μM following 10-fold serial dilutions. […] This is in approximate agreement with the published potency of pediocin PA-1 [28] . Though the molecular mass of pediocin PA-1 is expected to be 4.5 kDa, we observed the partially purified peptide to migrate with an apparent mass of ~12.5 kDa (Figure 1B). However, subsequent analysis by LC-MS yielded peaks of multiple m/z with the predominant peak at the expected molecular size of 4.6 kDa (Figure S4). The purified pediocin PA-1, separated on denaturing but non-reducing SDS-PAGE (since this bacteriocin contains two crucial disulfide bonds), was subjected to agar-overlay assay using L. seeligeri as indicator organism (Figure S5).
(§3) The antimicrobial spectrum of pediocin PA-1 was assayed using a kill curve. Cultures grown overnight were resuspended in fresh medium at an OD600 of 0.05. EC50 was determined by incubating cells with varying concentrations of pediocin in a 96-well plate, and growth was measured at 600 nm after 24 h.
Figure S7. Growth inhibition of L. seeligeri by modified and unmodified pediocin PA-1.

B. subtilis = experiment: Cell-binding assay by flow cytometry; design: species or system Bacillus subtilis
Protocol: as §1

L. cremoris = experiment: Cell-binding assay by flow cytometry; design: species or system Lactococcus cremoris; settings: Table S1, organism printed as L. lactis
Protocol: as §1

E. coli = experiment: Cell-binding assay by flow cytometry; settings: Table S1
Protocol: as §1

L. coryniformis [4] = experiment: Cell-binding assay by flow cytometry; design: species or system Lactobacillus coryniformis
Protocol: as §1

[5] = assay type: physicochemical
From the text: We then proceeded to clone the pediocin operon from P. acidilactici UL5 into pSIP-P27 vector for heterologous expression in other lactic acid bacteria viz. Lactiplantibacillus plantarum WCFS1, Lactococcus cremoris MG1363 and the well-established expression host, E. coli MG1655. The pediocin operon imparted anti-listerial activity to the L. plantarum culture supernatant but not to that of L. cremoris or E. coli (Figure 1A). Based on the degree of bioactivity, we concluded that the level of recombinant pediocin PA-1 accumulated in L. plantarum culture was […] that observed for P. acidilactici UL5 and was therefore not pursued further. Thus, for subsequent studies, we isolated pediocin PA-1 from P. acidilactici UL5 directly using the cell adsorption-desorption approach (Figure S2). […] We attempted to further purify the preparation using reverse phase HPLC with minimal enhancement in purity but a significant loss in yield (Figure S3). The peptide recovered after cell adsorption-desorption and dialysis was lyophilized for long-term storage to minimize any loss in activity. The peptide using this method was purified 189-fold with specific activity of 9,434 AU·mg^−1 as measured by agar-well diffusion method (Figure 1B, Figure S2A–C).

L. coryniformis [6] = experiment: Kill curve (growth at 600 nm after 24 h); assay type: cell-based, Lactobacillus coryniformis; settings: Figure 1C, start OD600 0.05, 96-well plate, 3 pM to 3 μM, 10-fold serial dilutions
Protocol: as §2, §3

indicator strains = experiment: Agar-well diffusion assay, specific activity of the purified peptide; assay type: cell-based; settings: agar-well diffusion method; peptide after cell adsorption-desorption and dialysis, purified 189-fold
Protocol: Pediocin PA-1 is known to display narrow-spectrum activity against only a few species that include Lactobacillus coryniformis B-4390 and various Listeria species. We re-tested the antimicrobial spectrum of the pediocin PA-1 producer strain, Pediococcus acidilactici UL5, using agar-well diffusion assays against a few representative members of lactic acid bacteria (LAB) and Gram-negative, E. coli DH5α as a control (Figure S1). The effectiveness of the spent cell-free culture medium was evaluated by its ability to inhibit growth of the indicator strains as measured by zone of inhibition (ZOI). […] Therefore, we conclude that the primary antimicrobial secreted by P. acidilactici UL5 was pediocin PA-1.
We then proceeded to clone the pediocin operon from P. acidilactici UL5 into pSIP-P27 vector for heterologous expression in other lactic acid bacteria viz. Lactiplantibacillus plantarum WCFS1, Lactococcus cremoris MG1363 and the well-established expression host, E. coli MG1655. The pediocin operon imparted anti-listerial activity to the L. plantarum culture supernatant but not to that of L. cremoris or E. coli (Figure 1A). […] The peptide using this method was purified 189-fold with specific activity of 9,434 AU·mg^−1 as measured by agar-well diffusion method (Figure 1B, Figure S2A–C). […]

L. casei = experiment: Cell-binding assay by flow cytometry; design: species or system Lacticaseibacillus casei; settings: Table S1
Protocol: as §1

[7] = signal did not saturate, read-out: Apparent KD
[8] = Table S1, maximum mean fluorescence intensity
[9] = flow cytometry, Atto488 conjugate up to 2 μM, 4 °C 30 min, 1 % BSA, 100 mM NaCl, Hill fit, read-out: Apparent KD

15-mer-FITC: FITC-conjugated 15-mer (K20-A34) fragment of pediocin PA-1 (KATTCIINNGAMAWA; also: FITC-conjugated, site not given here; UniProt P29430 38-52, looked up, fragment)
binding at the tested pHs (in words) (L. seeligeri [1]): pH-dependent binding | Kd (L. seeligeri [1]; pH 6.0 sodium phosphate 5 mM, 1 % BSA, 100 mM NaCl, 4 °C 30 min, read-out: apparent KD): 2800 ± 300 nM | binding (in words) (E. faecium): modest binding | depletion in the proportion of L. seeligeri (fluorescence-negative population after FACS) [2]: more than 50%

Ped-FITC: synthesized FITC-conjugated full-length pediocin PA-1 ({FITC}-KYYGNGVTCGKHSCSVDWGKATTCIINNGAMAWATGGHQGNHKC; disulfide (positions not given here); ends not checked; UniProt P29430 19-62, looked up)
antimicrobial activity (in words) (L. seeligeri [3]; listed as FITC-conjugation at the N-terminus): abolished activity entirely | antimicrobial activity (in words) (L. seeligeri [3]; listed as conjugate to FITC): very low activity | binding at the tested pHs (in words) (L. seeligeri [1]): strong binding | depletion in the proportion of L. seeligeri (fluorescence-negative population after FACS) [2]: more than 50% | binding (in words) (B. subtilis; flow cytometry, pH 6.0, highest concentration tested (30 μM)): modest binding

biosynthetic pediocin PA-1: class IIa bacteriocin partially purified from P. acidilactici UL5 by cell adsorption-desorption (KYYGNGVTCGKHSCSVDWGKATTCIINNGAMAWATGGHQGNHKC; UniProt P29430 19-62, looked up)
Hill co-efficient (L. cremoris): 0.7 | Kd (L. cremoris; [7]): > 2000 nM | EC50 (L. seeligeri [3]; Figure 1C, start OD600 0.05, 96-well plate, growth at 600 nm after 24 h, 3 pM to 3 μM, 10-fold serial dilutions, read-out: EC50 (kill-curve)): ~13.3 nM | Hill co-efficient (E. coli): 0.9 | Kd (E. coli; [7]): > 2000 nM | Hill co-efficient (L. coryniformis [4]; Table S1, fit MFI = MFImax[S]^n/(KD^n+[S]^n)): 1.4 | MFImax (×10^3) (L. coryniformis [4]; [8]): 6.3 ± 0.3 ×10^3 | Kd (L. coryniformis [4]; [9]): 46 ± 8 nM | stability of recovered peptide (in words) [5]: the peptide recovered at the acidic pH was found to be more stable | EC50 (L. coryniformis [6]): ~1 nM | Hill co-efficient (B. subtilis; Table S1, Hill fit): 0.9 | MFImax (×10^3) (B. subtilis; [8]): 7 ± 1 ×10^3 | Kd (B. subtilis; [9]): 467 ± 167 nM | specific activity (indicator strains): 9,434 AU·mg^−1 | Hill co-efficient (L. casei): 0.7 | MFImax (×10^3) (L. casei; signal did not saturate): >2* ×10^3 | Kd (L. casei; [7]): > 2000 nM
